The OligoGym collection
Several values for one entry are separate records, joined by “and”; a condition that tells them apart may be missing. Equal entries are not always repeated. After the bases stand the sugars from the 5' end (letter, count) and the backbone: PS all phosphorothioate, else s phosphorothioate and o phosphodiester by linkage. Methylation of C is not given here. e = 2'-O-(2-methoxyethyl) (MOE); k = constrained ethyl (cEt); d = 2'-deoxy (DNA)

Target: SOD1
Settings: ASO

## TGTTTATTGGGCGATCC (sugars e2 k2 d9 k2 e2, PS)
HepG2, 4 µM
  target mRNA inhibition: 47%

## TTAAGATTACAGTGTTT (sugars e3 k2 d7 k2 e3, PS)
HepG2, 3 µM
  target mRNA inhibition: 54%

## TTAATGTTTATCAGGA (sugars kekeddddddddekek, linkages s1 o3 s8 o1 s2)
A431, 0.12 µM
  target mRNA inhibition: 3%
A431, 0.6 µM
  target mRNA inhibition: 45%
A431, 3 µM
  target mRNA inhibition: 65%
A431, 15 µM
  target mRNA inhibition: 81%
HepG2, 0.222 µM
  target mRNA inhibition: 53%
HepG2, 0.667 µM
  target mRNA inhibition: 82%
HepG2, 2 µM
  target mRNA inhibition: 91%
HepG2, 6 µM
  target mRNA inhibition: 96%

## TTAATGTTTATCAGGAT (sugars e4 d8 k2 e3, linkages s1 o2 s9 o2 s2)
A431, 0.062 µM
  target mRNA inhibition: 26%
A431, 0.185 µM
  target mRNA inhibition: 30%
A431, 0.556 µM
  target mRNA inhibition: 58%
A431, 0.6 µM
  target mRNA inhibition: 50%
A431, 1.667 µM
  target mRNA inhibition: 64%
A431, 5 µM
  target mRNA inhibition: 68%
A431, 15 µM
  target mRNA inhibition: 78%
SH-SY5Y, 0.062 µM
  target mRNA inhibition: 11%
SH-SY5Y, 0.185 µM
  target mRNA inhibition: 44%
SH-SY5Y, 0.556 µM
  target mRNA inhibition: 53%
SH-SY5Y, 1.667 µM
  target mRNA inhibition: 75%
SH-SY5Y, 5 µM
  target mRNA inhibition: 77%
SH-SY5Y, 15 µM
  target mRNA inhibition: 93%

## TTATCAGGATACATTTC (sugars e2 k2 d8 k2 e3, PS)
HepG2, 4 µM
  target mRNA inhibition: 57%

## TTATCAGGATACATTTC (sugars e2 k2 d9 k2 e2, PS)
HepG2, 4 µM
  target mRNA inhibition: 67%

## TTATTCACAGGCTTGAA (sugars e3 k2 d7 k2 e3, PS)
HepG2, 3 µM
  target mRNA inhibition: 10%

## TTCACAGGCTTGAATGA (sugars e2 k2 d9 k2 e2, PS)
HepG2, 5 µM
  target mRNA inhibition: 16%

## TTCACTGGTCCATTACT (sugars e3 k2 d7 k2 e3, PS)
HepG2, 3 µM
  target mRNA inhibition: 14%

## TTCAGTCAGTCCTTTAATGC (sugars e5 d10 e5, PS)
HepG2, 5 µM
  target mRNA inhibition: 24% and 21%

## TTCCACCTTTGCCCAAG (sugars e3 k2 d7 k2 e3, PS)
HepG2, 3 µM
  target mRNA inhibition: 87%

## TTCCCCACACCTTCACT (sugars e3 k2 d7 k2 e3, PS)
HepG2, 3 µM
  target mRNA inhibition: 8%

## TTCCTTCTGCTCGAAAT (sugars e3 k2 d7 k2 e3, PS)
HepG2, 3 µM
  target mRNA inhibition: 13%

## TTCTACAGCTAGCAGGA (sugars e2 k2 d9 k2 e2, PS)
HepG2, 0.1875 µM
  target mRNA inhibition: 10%
HepG2, 0.75 µM
  target mRNA inhibition: 57%
HepG2, 3 µM
  target mRNA inhibition: 84%
HepG2, 4 µM
  target mRNA inhibition: 79%
HepG2, 12 µM
  target mRNA inhibition: 94%

## TTCTCACTACAGGTACTTTA (sugars e5 d10 e5, PS)
HepG2, 5 µM
  target mRNA inhibition: 28%

## TTGGATTCTTTTAATAG (sugars e3 k2 d7 k2 e3, PS)
HepG2, 3 µM
  target mRNA inhibition: 8%

## TTGGGCGATCCCAATTA (sugars e2 k2 d9 k2 e2, PS)
HepG2, 4 µM
  target mRNA inhibition: 5%

## TTGGGCGATCCCAATTA (sugars e3 k2 d7 k2 e3, PS)
HepG2, 3 µM
  target mRNA inhibition: 26%

## TTTAATGCTTCCCCACACCT (sugars e5 d10 e5, PS)
HepG2, 4 µM
  target mRNA inhibition: 15%

## TTTAATGTTTATCAGG (sugars kekeddddddddekek, linkages s1 o3 s8 o1 s2)
A431, 0.12 µM
  target mRNA inhibition: 15%
A431, 0.6 µM
  target mRNA inhibition: 44%
A431, 3 µM
  target mRNA inhibition: 73%
A431, 15 µM
  target mRNA inhibition: 85%
HepG2, 0.222 µM
  target mRNA inhibition: 73%
HepG2, 0.667 µM
  target mRNA inhibition: 90%
HepG2, 2 µM
  target mRNA inhibition: 93%
HepG2, 6 µM
  target mRNA inhibition: 97%

## TTTATAGGCCAGACCTCCGC (sugars e5 d10 e5, PS)
HepG2, 4 µM
  target mRNA inhibition: 68% and 69%
HepG2, 12 µM
  target mRNA inhibition: 82%

## TTTCTACAGCTAGCAGG (sugars e2 k2 d8 k2 e3, PS)
HepG2, 0.1875 µM
  target mRNA inhibition: 16%
HepG2, 0.75 µM
  target mRNA inhibition: 58%
HepG2, 3 µM
  target mRNA inhibition: 78%
HepG2, 4 µM
  target mRNA inhibition: 76%
HepG2, 12 µM
  target mRNA inhibition: 87%

## TTTCTACAGCTAGCAGG (sugars e3 k2 d7 k2 e3, PS)
HepG2, 3 µM
  target mRNA inhibition: 38%

## TTTCTCACTACAGGTAC (sugars e2 k2 d8 k2 e3, PS)
HepG2, 5 µM
  target mRNA inhibition: 35%

## TTTCTGGATAGAGGATTAAA (sugars e5 d10 e5, PS)
HepG2, 5 µM
  target mRNA inhibition: 6% and 14%

## TTTGGATTCTTTTAATAGCC (sugars e5 d10 e5, PS)
HepG2, 5 µM
  target mRNA inhibition: 14%

## TTTGTCAGCAGTCACATTGC (sugars e5 d10 e5, PS)
HepG2, 5 µM
  target mRNA inhibition: 26% and 16%

## TTTTAGTTTGAATTTGG (sugars e3 k2 d7 k2 e3, PS)
HepG2, 3 µM
  target mRNA inhibition: 12%

## TTTTATTCACAGGCTTG (sugars e3 k2 d7 k2 e3, PS)
HepG2, 3 µM
  target mRNA inhibition: 28%

## TTTTTCATGGACCACCA (sugars e3 k2 d7 k2 e3, PS)
HepG2, 3 µM
  target mRNA inhibition: 76%
